Experimental findings from patent US20200016136A1 (VIIV HEALTHCARE UK (NO. 5) LIMITED, priority 2017, published 2020) are described below.

Each structure is given as a SMILES string.

Broadly, the EC50 is the concentration needed to bring the measured effect to its halfway point.

The assay deals with NL-RLuc virus (recombinant NL4-3 HIV with Renilla Luciferase gene). In words: Inhibition of HIV replication (NL-RLuc virus in MT-2 cells, luciferase readout). Format: cell-based, Human immunodeficiency virus (HIV). Conditions: MT2, 120 h. The method, boiled down: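 MT-2 cells infected with NL4-3-derived virus carrying Renilla luciferase in place of part of nef, grown 5 days with serial compound dilutions in RPMI 1640/10% FBS. Virus growth read as luciferase expression. EC50 from median effect equation, at least 2 experiments.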
With `Cc1nc(NC2CCN(C)CC2)c(-c2ccc3c(c2)CCN(c2ncnc4c2oc2ccccc24)C3)c(N2CCC(C)(C)CC2)c1[C@H](OC(C)(C)C)C(=O)O` [Example 12, (S)-2-(5-(2-(Benzofuro[3,2-d]pyrimidin-4-yl)-1,2,3,4-tetrahydroisoquinolin-6-yl)-4-(4,4-dimethylpiperidin-1-yl)-2-methyl-6-((1-methylpiperidin-4-yl)amino)pyridin-3-yl)-2-(tert-butoxy)acetic Acid], the concentration for a half-maximal effect (EC50) is 1 nM.
For the compound `Cc1nc(C)c([C@H](OC(C)(C)C)C(=O)O)c(N2CCC(C)(C)CC2)c1-c1ccc2c(c1)CCN(c1ncnc(N3CCC(CO)CC3)n1)C2` [Example 62, (S)-2-(tert-Butoxy)-2-(4-(4,4-dimethylpiperidin-1-yl)-5-(2-(4-(4-(hydroxymethyl)piperidin-1-yl)-1,3,5-triazin-2-yl)-1,2,3,4-tetrahydroisoquinolin-6-yl)-2,6-dimethylpyridin-3-yl)acetic Acid], the EC50 turned out to be 3 nM.
Turning to `Cc1cccc(Cl)c1CN1CCc2cc(-c3c(NCc4ccn[nH]4)nc(C)c([C@H](OC(C)(C)C)C(=O)O)c3N3CCC(C)(C)CC3)ccc2C1` [Example 6, (S)-2-(6-(((1H-Pyrazol-5-yl)methyl)amino)-5-(2-(2-chloro-6-methylbenzyl)-1,2,3,4-tetrahydroisoquinolin-6-yl)-4-(4,4-dimethylpiperidin-1-yl)-2-methylpyridin-3-yl)-2-(tert-butoxy)acetic Acid], the half-maximal effective concentration (EC50) amounted to 18 nM.
Turning to `CC1(C)CCN(c2c(-c3ccc4c(c3)CCN(c3nccc(-c5cnccn5)n3)C4)cnc(Cl)c2[C@H](OC(C)(C)C)C(=O)O)CC1` [Example 153, (S)-2-(tert-Butoxy)-2-(2-chloro-4-(4,4-dimethylpiperidin-1-yl)-5-(2-(4-(pyrazin-2-yl)pyrimidin-2-yl)-1,2,3,4-tetrahydroisoquinolin-6-yl)pyridin-3-yl)acetic Acid], the EC50 was found to be 2 nM.
The value for `CC1(C)CCN(c2c(-c3ccc4c(c3)CCN(c3nccc(N5CCOCC5)n3)C4)c(CN3CCC4(CCC4)CC3)nc(Cl)c2[C@H](OC(C)(C)C)C(=O)O)CC1` [Example 150, (S)-2-(6-((7-Azaspiro[3.5]nonan-7-yl)methyl)-2-chloro-4-(4,4-dimethylpiperidin-1-yl)-5-(2-(4-morpholinopyrimidin-2-yl)-1,2,3,4-tetrahydroisoquinolin-6-yl)pyridin-3-yl)-2-(tert-butoxy)acetic Acid] was 0.3 nM.
Consider `Cc1nc(C)c([C@H](OC(C)(C)C)C(=O)O)c(N2CCC(C)(C)CC2)c1-c1ccc2c(c1)CCN(c1nc(Cl)nc(N3CCOCC3)n1)C2` [Example 58, (S)-2-(tert-Butoxy)-2-(5-(2-(4-chloro-6-morpholino-1,3,5-triazin-2-yl)-1,2,3,4-tetrahydroisoquinolin-6-yl)-4-(4,4-dimethylpiperidin-1-yl)-2,6-dimethylpyridin-3-yl)acetic Acid], for which the 50% effective concentration (EC50) was determined as 8 nM.
As for `Cc1cccc(Cl)c1CN1CCc2cc(-c3c(NCCCN(C)C)nc(C)c([C@H](OC(C)(C)C)C(=O)O)c3N3CCC(C)(C)CC3)ccc2C1` [Example 9, (S)-2-(tert-Butoxy)-2-(5-(2-(2-chloro-6-methylbenzyl)-1,2,3,4-tetrahydroisoquinolin-6-yl)-6-((3-(dimethylamino)propyl)amino)-4-(4,4-dimethylpiperidin-1-yl)-2-methylpyridin-3-yl)acetic Acid], the concentration for a half-maximal effect (EC50) came out at 2 nM.
Turning to `Cc1nc(C)c([C@H](OC(C)(C)C)C(=O)O)c(N2CCC(C)(C)CC2)c1-c1ccc2c(c1)CCN(c1nccc(-c3cccnc3)n1)C2` [Example 105, (S)-2-(tert-Butoxy)-2-(4-(4,4-dimethylpiperidin-1-yl)-2,6-dimethyl-5-(2-(4-(pyridin-3-yl)pyrimidin-2-yl)-1,2,3,4-tetrahydroisoquinolin-6-yl)pyridin-3-yl)acetic Acid], the half-maximal effective concentration (EC50) was 1 nM.
For `CC1(C)CCN(c2c(-c3ccc4c(c3)CCN(c3nccc(-c5cccnc5)n3)C4)cnc(Cl)c2[C@H](OC(C)(C)C)C(=O)O)CC1` [Example 149, (S)-2-(tert-Butoxy)-2-(2-chloro-4-(4,4-dimethylpiperidin-1-yl)-5-(2-(4-(pyridin-3-yl)pyrimidin-2-yl)-1,2,3,4-tetrahydroisoquinolin-6-yl)pyridin-3-yl)acetic Acid], the EC50 was determined as 2 nM.
As for `Cc1nc(C)c([C@H](OC(C)(C)C)C(=O)O)c(N2CCC(C)(C)CC2)c1-c1ccc2c(c1)CCN(c1cccc(N3CCOCC3)n1)C2` [Example 66, (S)-2-(tert-Butoxy)-2-(4-(4,4-dimethylpiperidin-1-yl)-2,6-dimethyl-5-(2-(6-morpholinopyridin-2-yl)-1,2,3,4-tetrahydroisoquinolin-6-yl)pyridin-3-yl)acetic Acid], the EC50 is 13 nM.
As for `Cc1nc(C)c([C@H](OC(C)(C)C)C(=O)O)c(N2CCC(C)(C)CC2)c1-c1ccc2c(c1)CCN(c1ccnc(N3CCOCC3)n1)C2` [Example 57, (S)-2-(tert-Butoxy)-2-(4-(4,4-dimethylpiperidin-1-yl)-2,6-dimethyl-5-(2-(2-morpholinopyrimidin-4-yl)-1,2,3,4-tetrahydroisoquinolin-6-yl)pyridin-3-yl)acetic Acid], the 50% effective concentration (EC50) stood at 0.5 nM.
For the compound `Cc1nc(C)c([C@H](OC(C)(C)C)C(=O)O)c(N2CCC(C)(C)CC2)c1-c1ccc2c(c1)CCN(c1cc(N3CCC(CCO)CC3)ncn1)C2` [Example 121, (S)-2-(tert-Butoxy)-2-(4-(4,4-dimethylpiperidin-1-yl)-5-(2-(6-(4-(2-hydroxyethyl)piperidin-1-yl)pyrimidin-4-yl)-1,2,3,4-tetrahydroisoquinolin-6-yl)-2,6-dimethylpyridin-3-yl)acetic Acid], the EC50 is 9 nM.
Turning to `Cc1nc(CO)c([C@H](OC(C)(C)C)C(=O)O)c(N2CCC(C)(C)CC2)c1-c1ccc2c(c1)CCN(c1ncnc3c1oc1ccccc13)C2` [Example 133, (S)-2-(5-(2-(Benzofuro[3,2-d]pyrimidin-4-yl)-1,2,3,4-tetrahydroisoquinolin-6-yl)-4-(4,4-dimethylpiperidin-1-yl)-2-(hydroxymethyl)-6-methylpyridin-3-yl)-2-(tert-butoxy)acetic Acid], the EC50 amounted to 3 nM.
For the compound `Cc1nc(C)c([C@H](OC(C)(C)C)C(=O)O)c(N2CCC(C)(C)CC2)c1-c1ccc2c(c1)CCN(c1ccc(C(F)(F)F)cn1)C2` [Example 143, (S)-2-(tert-butoxy)-2-(4-(4,4-dimethylpiperidin-1-yl)-2,6-dimethyl-5-(2-(5-(trifluoromethyl)pyridin-2-yl)-1,2,3,4-tetrahydroisoquinolin-6-yl)pyridin-3-yl)acetic Acid], the EC50 is 14 nM.
For `Cc1nc(C)c([C@H](OC(C)(C)C)C(=O)O)c(N2CCC(C)(C)CC2)c1-c1ccc2c(c1)CCN(c1ccnc(N3CCC(C(C)(C)O)CC3)n1)C2` [Example 71, (S)-2-(tert-Butoxy)-2-(4-(4,4-dimethylpiperidin-1-yl)-5-(2-(2-(4-(2-hydroxypropan-2-yl)piperidin-1-yl)pyrimidin-4-yl)-1,2,3,4-tetrahydroisoquinolin-6-yl)-2,6-dimethylpyridin-3-yl)acetic Acid], the EC50 is 4 nM.
On to `Cc1nc(C)c([C@H](OC(C)(C)C)C(=O)O)c(N2CCC(C)(C)CC2)c1-c1ccc2c(c1)CCN(c1cc(N3CCOCC3)cc(F)n1)C2` [Example 87, (S)-2-(tert-Butoxy)-2-(4-(4,4-dimethylpiperidin-1-yl)-5-(2-(6-fluoro-4-morpholinopyridin-2-yl)-1,2,3,4-tetrahydroisoquinolin-6-yl)-2,6-dimethylpyridin-3-yl)acetic Acid], for which the concentration for a half-maximal effect (EC50) came to 5 nM.
